Source: patent publication US8071580B2, “Medium-chain length fatty alcohols as stimulators of hematopoiesis” (Prometic Biosciences Inc., priority 2004, dated 2011)

How the values were obtained:
[1] = system: Female C57BL/6 mice immunosuppressed with cyclophosphamide; assay: Chemoprotection studies: in vivo induction of immune cell proliferation or protection in cyclophosphamide-immunosuppressed mice; conditions: oral pre-treatment day -3, -2, -1, CY 200 mg/kg i.v. day 0, sacrifice day +5; for peripheral white blood cell count: FIG. 2; for spleen red cell count: FIG. 3
Description: Chemoprotection Studies: In vivo Induction of Immune Cell Proliferation or Protection By Medium-Chain Fatty Alcohol.
Female C57BL/6 mice, 6 to 8 weeks old, were immunosuppressed by treatment with 200 mg/kg of cyclophosphamide (CY) administered intravenously at day 0. To examine the immunoprotective effect of the medium-chain fatty alcohol, mice were pre-treated at day −3, −2 and −1 by oral administration of the compound. Mice were sacrificed at day +5 by cardiac puncture and cervical dislocation. After the sacrifice, tissues were crushed in PBS buffer and cells were counted on a hemacytometer.

rats = conditions: oral; cited from earlier work

SMILES | bone marrow white cell count ([1]; FIG. 1) | peripheral white blood cell count [1] | spleen red cell count [1] | LD50 (rats) [g/kg body weight]
CCCCCCCCCCO [decanol] | significant increase | nonsignificant increase | significant increase | 4.7
CCCCCCCCCCCCO [dodecanol] | – | nonsignificant increase | significant increase | –
CCCCCCCCO [octanol] | – | nonsignificant increase | significant increase | 3.2
